Patent publication US11498899B2, “Nitrone herbicides” (FMC Corporation, priority 2016, dated 2022)

Tests used:
kochia (Kochia scoparia) [1] = test: Test A preemergence, visual injury rating 0-100; format: in vivo
[2] = system: ragweed (common ragweed, Ambrosia elatior); test: Test A preemergence, visual injury rating 0-100; format: in vivo
[3] = system: pigweed (Amaranthus retroflexus); test: Test A preemergence, visual injury rating 0-100; format: in vivo
[4] = system: foxtail, giant (giant foxtail, Setaria faberii); test: Test A preemergence, visual injury rating 0-100; format: in vivo
[5] = system: ryegrass, Italian (Italian ryegrass, Lolium multiflorum); test: Test A preemergence, visual injury rating 0-100; format: in vivo
[6] = system: barnyardgrass (Echinochloa crus-galli); test: Test A preemergence, visual injury rating 0-100 (0 no effect, 100 complete control); format: in vivo
corn (Zea mays) = test: Test A postemergence, visual injury rating 0-100; format: in vivo; details: 0 to 100 scale
[7] = system: blackgrass (Alopecurus myosuroides); test: Test A postemergence, visual injury rating 0-100; format: in vivo; details: 0 to 100 scale
kochia (Kochia scoparia) [8] = test: Test A postemergence, visual injury rating 0-100; format: in vivo; details: 0 to 100 scale
[9] = system: galium (catchweed bedstraw, Galium aparine); test: Test A postemergence, visual injury rating 0-100; format: in vivo; details: 0 to 100 scale
[10] = system: barnyardgrass (Echinochloa crus-galli); test: Test A postemergence, visual injury rating 0-100; format: in vivo; details: 0 to 100 scale
[11] = system: ragweed (common ragweed, Ambrosia elatior); test: Test A postemergence, visual injury rating 0-100; format: in vivo; details: 0 to 100 scale
[12] = system: pigweed (Amaranthus retroflexus); test: Test A postemergence, visual injury rating 0-100; format: in vivo; details: 0 to 100 scale
[13] = system: foxtail, giant (giant foxtail, Setaria faberii); test: Test A postemergence, visual injury rating 0-100; format: in vivo; details: 0 to 100 scale
[14] = system: ryegrass, Italian (Italian ryegrass, Lolium multiflorum); test: Test A postemergence, visual injury rating 0-100; format: in vivo; details: 0 to 100 scale
[15] = system: wheat (Triticum aestivum); test: Test A postemergence, visual injury rating 0-100; format: in vivo; details: 0 to 100 scale
[16] = system: barnyardgrass (Echinochloa crus-galli); test: Test B flooded paddy test, visual rating 0-100; details: Flood, 250 g ai/ha, applied to paddy water, rated after 13 to 15 days
rice (Oryza sativa) = test: Test B flooded paddy test, visual rating 0-100 (0 no effect, 100 complete control); details: Flood, 250 g ai/ha, applied to paddy water, rated after 13 to 15 days
[17] = system: ducksalad (Heteranthera limosa); test: Test B flooded paddy test, visual rating 0-100; details: Flood, 250 g ai/ha, applied to paddy water, rated after 13 to 15 days

| SMILES | Kochia plant response rating (0 to 100 scale) (kochia (Kochia scoparia) [1]; 125 g ai/ha) | Kochia plant response rating (0 to 100 scale) (kochia (Kochia scoparia) [1]; 500 g ai/ha) | Ragweed plant response rating (0 to 100 scale) ([2]; 125 g ai/ha) | Ragweed plant response rating (0 to 100 scale) ([2]; 500 g ai/ha) | Pigweed plant response rating (0 to 100 scale) ([3]; 125 g ai/ha) | Pigweed plant response rating (0 to 100 scale) ([3]; 500 g ai/ha) | Foxtail, Giant plant response rating (0 to 100 scale) ([4]; 125 g ai/ha) | Foxtail, Giant plant response rating (0 to 100 scale) ([4]; 500 g ai/ha) | Ryegrass, Italian plant response rating (0 to 100 scale) ([5]; 125 g ai/ha) | Ryegrass, Italian plant response rating (0 to 100 scale) ([5]; 500 g ai/ha) | Barnyardgrass plant response rating (0 to 100 scale) ([6]; 125 g ai/ha) | Barnyardgrass plant response rating (0 to 100 scale) ([6]; 500 g ai/ha) | Corn plant response rating (corn (Zea mays); 125 g ai/ha) | Corn plant response rating (corn (Zea mays); 500 g ai/ha) | Blackgrass plant response rating ([7]; 125 g ai/ha) | Blackgrass plant response rating ([7]; 500 g ai/ha) | Kochia plant response rating (kochia (Kochia scoparia) [8]; 125 g ai/ha) | Kochia plant response rating (kochia (Kochia scoparia) [8]; 500 g ai/ha) | Galium plant response rating ([9]; 125 g ai/ha) | Galium plant response rating ([9]; 500 g ai/ha) | also measured |
| --- | --- | --- | --- | --- | --- | --- | --- | --- | --- | --- | --- | --- | --- | --- | --- | --- | --- | --- | --- | --- | --- |
| CC1=[N+]([O-])C(C(=O)Nc2cccc(F)c2F)C(c2cc(F)c(F)c(F)c2)C1 (stereo not shown) [Compound 95] | 0 | 70 | 20 | 80 | 20 | 80 | 90 | 100 | 30 | 90 | 90 | 90 | 0 | 50 | 60 | 70 | 30 | 50 | 0 | 50 | Barnyardgrass plant response rating ([10]; 125 g ai/ha): 70; Barnyardgrass plant response rating ([10]; 500 g ai/ha): 80; Ragweed plant response rating ([11]; 125 g ai/ha): 0; Ragweed plant response rating ([11]; 500 g ai/ha): 20; Pigweed plant response rating ([12]; 125 g ai/ha): 0; Pigweed plant response rating ([12]; 500 g ai/ha): 20; Foxtail, Giant plant response rating ([13]; 125 g ai/ha): 80; Foxtail, Giant plant response rating ([13]; 500 g ai/ha): 90; Ryegrass, Italian plant response rating ([14]; 125 g ai/ha): 40; Ryegrass, Italian plant response rating ([14]; 500 g ai/ha): 70; Wheat plant response rating ([15]; 125 g ai/ha): 10; Wheat plant response rating ([15]; 500 g ai/ha): 60; Barnyardgrass plant response rating (0 to 100 scale) [16]: 80; Rice plant response rating (0 to 100 scale) (rice (Oryza sativa)): 0; Ducksalad plant response rating (0 to 100 scale) [17]: 100 |
| COc1cc(OC)cc(C2CC(C)=[N+]([O-])C2C(=O)Nc2cccc(F)c2F)c1 (stereo not shown) [Compound 96] | 0 | 40 | 0 | 0 | 0 | 10 | 90 | 90 | 0 | 0 | 90 | 100 | 10 | 70 | 40 | 90 | 0 | 0 | 0 | 20 | Barnyardgrass plant response rating ([10]; 125 g ai/ha): 60; Barnyardgrass plant response rating ([10]; 500 g ai/ha): 90; Ragweed plant response rating ([11]; 125 g ai/ha): 0; Ragweed plant response rating ([11]; 500 g ai/ha): 30; Pigweed plant response rating ([12]; 125 g ai/ha): 0; Pigweed plant response rating ([12]; 500 g ai/ha): 0; Foxtail, Giant plant response rating ([13]; 125 g ai/ha): 40; Foxtail, Giant plant response rating ([13]; 500 g ai/ha): 90; Ryegrass, Italian plant response rating ([14]; 125 g ai/ha): 0; Ryegrass, Italian plant response rating ([14]; 500 g ai/ha): 60; Wheat plant response rating ([15]; 125 g ai/ha): 0; Wheat plant response rating ([15]; 500 g ai/ha): 10; Barnyardgrass plant response rating (0 to 100 scale) [16]: 0; Rice plant response rating (0 to 100 scale) (rice (Oryza sativa)): 0; Ducksalad plant response rating (0 to 100 scale) [17]: 0 |
| CC1=[N+]([O-])C(C(=O)Nc2cccc(F)c2F)C(c2ccccc2)C1 (stereo not shown) [Compound 97] | 50 | 60 | 40 | 90 | 0 | 60 | 90 | 90 | 20 | 90 | 90 | 100 | 0 | 0 | 30 | 70 | 0 | 50 | 30 | 50 | Barnyardgrass plant response rating ([10]; 125 g ai/ha): 70; Barnyardgrass plant response rating ([10]; 500 g ai/ha): 90; Ragweed plant response rating ([11]; 125 g ai/ha): 0; Ragweed plant response rating ([11]; 500 g ai/ha): 20; Pigweed plant response rating ([12]; 125 g ai/ha): 0; Pigweed plant response rating ([12]; 500 g ai/ha): 0; Foxtail, Giant plant response rating ([13]; 125 g ai/ha): 60; Foxtail, Giant plant response rating ([13]; 500 g ai/ha): 90; Ryegrass, Italian plant response rating ([14]; 125 g ai/ha): 0; Ryegrass, Italian plant response rating ([14]; 500 g ai/ha): 50; Wheat plant response rating ([15]; 125 g ai/ha): 10; Wheat plant response rating ([15]; 500 g ai/ha): 30; Barnyardgrass plant response rating (0 to 100 scale) [16]: 70; Rice plant response rating (0 to 100 scale) (rice (Oryza sativa)): 0; Ducksalad plant response rating (0 to 100 scale) [17]: 100 |
| CC1=[N+]([O-])C(C(=O)Nc2cccc(F)c2F)C(c2cc(C(F)(F)F)ccc2C)C1 (stereo not shown) [Compound 98] | 10 | 80 | 20 | 80 | 0 | 70 | 90 | 100 | 90 | 100 | 90 | 90 | 60 | 80 | 70 | 70 | 0 | 0 | 0 | 40 | Barnyardgrass plant response rating ([10]; 125 g ai/ha): 70; Barnyardgrass plant response rating ([10]; 500 g ai/ha): 90; Ragweed plant response rating ([11]; 125 g ai/ha): 30; Ragweed plant response rating ([11]; 500 g ai/ha): 30; Pigweed plant response rating ([12]; 125 g ai/ha): 0; Pigweed plant response rating ([12]; 500 g ai/ha): 30; Foxtail, Giant plant response rating ([13]; 125 g ai/ha): 80; Foxtail, Giant plant response rating ([13]; 500 g ai/ha): 90; Ryegrass, Italian plant response rating ([14]; 125 g ai/ha): 40; Ryegrass, Italian plant response rating ([14]; 500 g ai/ha): 70; Wheat plant response rating ([15]; 125 g ai/ha): 60; Wheat plant response rating ([15]; 500 g ai/ha): 70; Barnyardgrass plant response rating (0 to 100 scale) [16]: 55; Rice plant response rating (0 to 100 scale) (rice (Oryza sativa)): 0; Ducksalad plant response rating (0 to 100 scale) [17]: 100 |
| CC1=[N+]([O-])C(C(=O)Nc2cccc(F)c2F)C(c2cccc(Cl)c2F)C1 (stereo not shown) [Compound 99] | 10 | 70 | 10 | 80 | 0 | 60 | 90 | 90 | 50 | 70 | 90 | 90 | 0 | 40 | 50 | 70 | 0 | 50 | 30 | 50 | Barnyardgrass plant response rating ([10]; 125 g ai/ha): 90; Barnyardgrass plant response rating ([10]; 500 g ai/ha): 90; Ragweed plant response rating ([11]; 125 g ai/ha): 0; Ragweed plant response rating ([11]; 500 g ai/ha): 30; Pigweed plant response rating ([12]; 125 g ai/ha): 0; Pigweed plant response rating ([12]; 500 g ai/ha): 40; Foxtail, Giant plant response rating ([13]; 125 g ai/ha): 60; Foxtail, Giant plant response rating ([13]; 500 g ai/ha): 90; Ryegrass, Italian plant response rating ([14]; 125 g ai/ha): 30; Ryegrass, Italian plant response rating ([14]; 500 g ai/ha): 70; Wheat plant response rating ([15]; 125 g ai/ha): 0; Wheat plant response rating ([15]; 500 g ai/ha): 50; Barnyardgrass plant response rating (0 to 100 scale) [16]: 60; Rice plant response rating (0 to 100 scale) (rice (Oryza sativa)): 0; Ducksalad plant response rating (0 to 100 scale) [17]: 85 |
